Test results reported in patent US7855213B2 (AstraZeneca AB, priority 2006, dated 2010).
Counter-ions that a name gives are not always drawn.

Target: T1, human β-Secretase (Homo sapiens, UniProt P56817)
T1 construct: The soluble part of the human β-Secretase (AA 1-AA 460) was cloned; made in house
Test: TR-FRET assay
Type: biochemical

T1 sequence (P56817 22-460): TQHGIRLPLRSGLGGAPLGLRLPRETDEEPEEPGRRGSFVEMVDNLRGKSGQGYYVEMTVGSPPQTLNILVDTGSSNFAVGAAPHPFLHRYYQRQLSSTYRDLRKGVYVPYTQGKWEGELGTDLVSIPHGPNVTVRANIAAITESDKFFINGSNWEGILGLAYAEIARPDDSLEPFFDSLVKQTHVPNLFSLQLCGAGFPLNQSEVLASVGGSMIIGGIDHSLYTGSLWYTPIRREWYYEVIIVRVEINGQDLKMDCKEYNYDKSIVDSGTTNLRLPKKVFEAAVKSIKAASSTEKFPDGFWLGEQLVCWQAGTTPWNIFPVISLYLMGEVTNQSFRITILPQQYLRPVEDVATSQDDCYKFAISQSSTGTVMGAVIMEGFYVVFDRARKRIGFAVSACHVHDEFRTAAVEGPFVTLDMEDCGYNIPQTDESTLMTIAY

| IC50 | SMILES |
| --- | --- |
| 880 nM | CC1(c2cccc(-c3cc(Cl)cc(Cl)c3)c2)N=C(N)c2ccccc21 (centres unmarked) [Example 94, 1-(3′,5′-Dichlorobiphenyl-3-yl)-1-methyl-1H-isoindol-3-amine hydrochloride] |
| 2010 nM | CC1(c2cccc(-c3cncnc3)c2)N=C(N)c2ccccc21 (centres unmarked) [Example 95, 1-Methyl-1-(3-pyrimidin-5-ylphenyl)-1H-isoindol-3-amine acetate] |
| 220 nM | COc1ccc(F)c(-c2cccc(C3(c4ccncc4F)N=C(N)c4ccccc43)c2)c1 (centres unmarked) [Example 99, 1-(2′-Fluoro-5′-methoxybiphenyl-3-yl)-1-(3-fluoropyridin-4-yl)-1H-isoindol-3-amine] |
| 220 nM | COc1cccc(-c2cccc(C3(c4ccncc4F)N=C(N)c4ccccc43)c2)c1F (centres unmarked) [Example 100, 1-(2′-Fluoro-3′-methoxybiphenyl-3-yl)-1-(3-fluoropyridin-4-yl)-1H-isoindol-3-amine] |
| 230 nM | COc1cccc(-c2cc(C3(c4ccncc4F)N=C(N)c4ccccc43)ccc2F)c1F (centres unmarked) [Example 101, 1-(2′,6-Difluoro-3′-methoxybiphenyl-3-yl)-1-(3-fluoropyridin-4-yl)-1H-isoindol-3-amine] |
| 310 nM | N#Cc1cncc(-c2cccc(C3(c4ccncc4F)N=C(N)c4ccccc43)c2)c1 (centres unmarked) [Example 102, 5-{3-[3-Amino-1-(3-fluoropyridin-4-yl)-1H-isoindol-1-yl]phenyl}nicotinonitrile] |
| 59 nM | COc1cccc(-c2cccc(C3(c4ccncc4)N=C(N)c4ccccc43)c2)c1F (centres unmarked) [Example 104, 1-(2′-Fluoro-3′-methoxybiphenyl-3-yl)-1-pyridin-4-yl-1H-isoindol-3-amine] |
| 29 nM | NC1=NC(c2ccncc2)(c2ccc(F)c(-c3cccnc3F)c2)c2ccccc21 (centres unmarked) [Example 105, 1-[4-Fluoro-3-(2-fluoropyridin-3-yl)phenyl]-1-pyridin-4-yl-1H-isoindol-3-amine] |
| 96 nM | CCc1cc(C2(c3cccc(-c4cccnc4F)c3)N=C(N)c3ccccc32)ccn1 (centres unmarked) [Example 112, 1-(2-Ethylpyridin-4-yl)-1-[3-(2-fluoropyridin-3-yl)phenyl]-1H-isoindol-3-amine] |
| 300 nM | CC(C)c1cc(C2(c3cccc(-c4cncnc4)c3)N=C(N)c3ccccc32)ccn1 (centres unmarked) [Example 114, 1-(2-Isopropylpyridin-4-yl)-1-(3-pyrimidin-5-ylphenyl)-1H-isoindol-3-amine] |
| 160 nM | NC1=NC(c2cccc(-c3cncnc3)c2)(c2ccnc(Cl)c2)c2ccccc21 (centres unmarked) [Example 122, 1-(2-Chloropyridin-4-yl)-1-(3-pyrimidin-5-ylphenyl)-1H-isoindol-3-amine] |
| 33 nM | COc1ccc(C2(c3ccc(F)c(-c4cncnc4)c3)N=C(N)c3ccccc32)cc1C (centres unmarked) [Example 127, 1-(4-Fluoro-3-pyrimidin-5-ylphenyl)-1-(4-methoxy-3-methylphenyl)-1H-isoindol-3-amine] |
| 40 nM | COc1ccc(C2(c3ccc(F)c(-c4cccnc4F)c3)N=C(N)c3ccccc32)cc1C (centres unmarked) [Example 128, 1-[4-Fluoro-3-(2-fluoropyridin-3-yl)phenyl]-1-(4-methoxy-3-methylphenyl)-1H-isoindol-3-amine] |
| 1300 nM | NC1=NC(c2ccc(C(F)(F)F)nc2)(c2cccc(-c3cncnc3)c2)c2ccccc21 (centres unmarked) [Example 130, 1-(3-Pyrimidin-5-ylphenyl)-1-[6-(trifluoromethyl)pyridin-3-yl]-1H-isoindol-3-amine 0.66 acetate] |
| 269 nM | NC1=NC(c2cccc(OS(=O)(=O)C(F)(F)F)c2)(c2ccc(F)c(-c3cccnc3F)c2)c2ccccc21 (centres unmarked) [Example 135] |

Further lines, the molecule ahead of its results:

| SMILES | IC50 |
| --- | --- |
| COc1ccc(C#N)c(-c2cccc(C3(C)N=C(N)c4ccccc43)c2)c1 (centres unmarked) [Example 93, 3′-(3-Amino-1-methyl-1H-isoindol-1-yl)-5-methoxybiphenyl-2-carbonitrile acetate] | 4350 nM |
| CC1(c2cccc(-c3cccnc3F)c2)N=C(N)c2ccccc21 (centres unmarked) [Example 96, 1-[3-(2-Fluoropyridin-3-yl)phenyl]-1-methyl-1H-isoindol-3-amine acetate] | 2200 nM |
| CC(C)C1(c2cccc(-c3cncnc3)c2)N=C(N)c2ccccc21 (centres unmarked) [Example 97, 1-Isopropyl-1-(3-pyrimidin-5-ylphenyl)-1H-isoindol-3-amine acetate] | 1000 nM |
| CC1(c2cccc(-c3cncc(F)c3)c2)N=C(N)c2ccccc21 (centres unmarked) [Example 98, 1-[3-(5-Fluoropyridin-3-yl)phenyl]-1-methyl-1H-isoindol-3-amine acetate] | 2000 nM |
| COc1ccc(F)c(-c2cccc(C3(c4ccncc4)N=C(N)c4ccccc43)c2)c1 (centres unmarked) [Example 103, 1-(2′-Fluoro-5′-methoxybiphenyl-3-yl)-1-pyridin-4-yl-1H-isoindol-3-amine] | 110 nM |
| COc1ncc(C2(c3cccc(-c4cccnc4F)c3)N=C(N)c3ccccc32)cn1 (centres unmarked) [Example 107, 1-[3-(2-Fluoropyridin-3-yl)phenyl]-1-(2-methoxypyrimidin-5-yl)-1H-isoindol-3-amine] | 440 nM |
| COc1ncc(C2(c3cccc(-c4cncnc4)c3)N=C(N)c3ccccc32)cn1 (centres unmarked) [Example 108, 1-(2-Methoxypyrimidin-5-yl)-1-(3-pyrimidin-5-ylphenyl)-1H-isoindol-3-amine] | 970 nM |
| COc1ncc(C2(c3cccc(-c4cccc(OC)c4F)c3)N=C(N)c3ccccc32)cn1 (centres unmarked) [Example 109, 1-(2′-Fluoro-3′-methoxybiphenyl-3-yl)-1-(2-methoxypyrimidin-5-yl)-1H-isoindol-3-amine] | 750 nM |
| CCc1cc(C2(c3cccc(-c4cncnc4)c3)N=C(N)c3ccccc32)ccn1 (centres unmarked) [Example 111, 1-(2-Ethylpyridin-4-yl)-1-(3-pyrimidin-5-ylphenyl)-1H-isoindol-3-amine] | 95 nM |
| CC(C)c1cc(C2(c3cccc(-c4cccnc4F)c3)N=C(N)c3ccccc32)ccn1 (centres unmarked) [Example 115, 1-[3-(2-Fluoropyridin-3-yl)phenyl]-1-(2-isopropylpyridin-4-yl)-1H-isoindol-3-amine] | 210 nM |
| NC1=NC(c2cccc(-c3cccnc3F)c2)(c2ccnc(F)c2)c2ccccc21 (centres unmarked) [Example 117, 1-(2-Fluoropyridin-4-yl)-1-[3-(2-fluoropyridin-3-yl)phenyl]-1H-isoindol-3-amine] | 100 nM |
| COc1cc(C2(c3cccc(-c4cccnc4F)c3)N=C(N)c3ccccc32)ccn1 (centres unmarked) [Example 119, 1-[3-(2-Fluoropyridin-3-yl)phenyl]-1-(2-methoxypyridin-4-yl)-1H-isoindol-3-amine] | 110 nM |
| NC1=NC(c2cccc(-c3cccnc3F)c2)(c2ccnc(Cl)c2)c2ccccc21 (centres unmarked) [Example 121, 1-(2-Chloropyridin-4-yl)-1-[3-(2-fluoropyridin-3-yl)phenyl]-1H-isoindol-3-amine] | 80 nM |
| NC1=NC(c2cncc(F)c2)(c2cccc(-c3cccnc3F)c2)c2ccccc21 (centres unmarked) [Example 124, 1-(5-Fluoropyridin-3-yl)-1-[3-(2-fluoropyridin-3-yl)phenyl]-1H-isoindol-3-amine] | 560 nM |
| NC1=NC(c2cncc(F)c2)(c2cccc(-c3cncnc3)c2)c2ccccc21 (centres unmarked) [Example 125, 1-(5-Fluoropyridin-3-yl)-1-(3-pyrimidin-5-ylphenyl)-1H-isoindol-3-amine] | 810 nM |
| NC1=NC(c2ccncc2)(c2cccc(-c3cncnc3)c2)c2cc(Cl)ccc21 (centres unmarked) [Example 129, 6-Chloro-1-pyridin-4-yl-1-(3-pyrimidin-5-ylphenyl)-1H-isoindol-3-amine] | 85 nM |
| Cc1nn(C)c(Cl)c1S(=O)(=O)Oc1cccc(C2(c3cc(Cl)nc(Cl)c3)N=C(N)c3ccccc32)c1 (centres unmarked) [Example 131, 3-[3-Amino-1-(2,6-dichloropyridin-4-yl)-1H-isoindol-1-yl]phenyl 5-chloro-1,3-dimethyl-1H-pyrazole-4-sulfonate] | 1070 nM |
| NC1=NC(c2cccc(OS(=O)(=O)c3c(F)cccc3F)c2)(c2cc(Cl)nc(Cl)c2)c2ccccc21 (centres unmarked) [Example 133, 3-[3-Amino-1-(2,6-dichloropyridin-4-yl)-1H-isoindol-1-yl]phenyl 2,6-difluorobenzenesulfonate] | 3240 nM |
| NC1=NC(c2cccc(OS(=O)(=O)C(F)(F)F)c2)(c2ccc(F)c(-c3cncnc3)c2)c2ccccc21 (centres unmarked) [Example 134, 3-[3-Amino-1-(4-fluoro-3-pyrimidin-5-ylphenyl)-1H-isoindol-1-yl]phenyl trifluoromethanesulfonate] | 347 nM |
| NC1=NC(c2ccc(OS(=O)(=O)C(F)(F)F)cc2)(c2ccc(F)c(-c3cncnc3)c2)c2ccccc21 (centres unmarked) [Example 136, 4-[3-Amino-1-(4-fluoro-3-pyrimidin-5-ylphenyl)-1H-isoindol-1-yl]phenyl trifluoromethanesulfonate] | 457 nM |
